What was measured:
[1] = Intestinal (jejunum) absorption of TSC and effect of gamma cyclodextrin; format: in vivo; conditions: rat jejunum; approx. 60 mg/kg TSC; TSC:gamma cyclodextrin 0.5:1 up to 4:1 (wt:wt); FIG. 2
Description: Male Sprague-Dawley (SD) and Wistar rats weighing approximately 300-400 g each were fasted for 24 hours prior to each experiment. Water was given ad libitum and coprophagy was prevented by using cages with wire-mesh floors. Anesthesia was induced and maintained with isoflurane. The carotid artery was exposed and cannulated with PE-50 tubing. The cannula was secured using silk sutures and 2% lidocaine was applied to the wound.
Following cannulation, a front midline […] was made, exposing the abdomen and intestinal segments. In this study, the jejunum was isolated and the TSC formulation was administered in the proximal jejunum. Approximately 60 mg/kg TSC was administered at various gamma cyclodextrin ratios of 0.5:1 up to 4:1 (wt. TSC:wt. gamma cyclodextrin). Movement of TSC within the intestinal segments was not restricted distal to the site of administration. The intestine was replaced and the abdomen closed with sutures. Approximately 0.3 mL blood samples were taken for the carotid artery at discrete time intervals following TSC administration. A small amount of sodium heparin was used as an anticoagulant. The blood samples were centrifuged and the resulting plasma volume mixed with 3 volumes of methanol and vortexed. The plasma mixture was then centrifuged and the supernatant was analyzed by HPLC to determine TSC levels.

neurons [2] = assay: Rat model of Parkinson's disease (6-OHDA), post-treatment, live neuron counts; format: in vivo
Description: It is of much more interest to know the effect of post-treatment on neuronal death following the injection of 6-OHDA. To investigate that, 5 μg of 6-OHDA were again injected into the substantia nigra as before, but the treatment began following that injection. The animals were then given daily injections of TSC (0.25 mg/kg) for 4 weeks before sacrifice. The brains were removed and sent to Charles River Laboratories for neuronal counts.

neurons [3] = assay: Rat model of hemorrhagic stroke (collagenase), neuronal death; format: in vivo; conditions: TSC injected starting 3 hours after collagenase, sacrifice at 48 hours
Description: The first study in which this was done was one conducted using a rat model of hemorrhagic stroke. […] TSC was then injected starting 3 hours after the collagenase was administered, and the animals were sacrificed 48 hours after the administration of the collagenase.
When there is a hemorrhage in the brain, the blood pools and forms a hematoma. Around the periphery of this hematoma, there is a death of neuronal cells. […] Use of the stain, fluorojade, allows one to count the numbers of “dead” neurons in a given brain section of the brain. This was done in the area around the hematomas formed in the hemorrhagic stroke rat model.

[4] = Scalability for Cmax: TSC with gamma cyclodextrin 1:1 in jejunum; format: in vivo; conditions: rat jejunum; 2.5, 5, 10 and 60 mg/kg TSC; TSC:gamma cyclodextrin 1:1; FIG. 4
Description: The dosage of TSC used in the above study is large, therefore, additional doses of TSC were administered with gamma cyclodextrin at a ratio of 1:1 (wt. TSC:wt. gamma cyclodextrin) in order to determine the scalability of systemic absorption (in terms of Cmax) with respect to TSC dosing amount. For the following study, TSC was administered to the jejunum intestinal segment at the following dosages: 2.5, 5, 10, and 60 mg/kg.
For this study, male Sprague-Dawley (SD) and Wistar rats weighing approximately 300-400 g each were fasted for 24 hours prior to each experiment. Water was given ad libitum and coprophagy was prevented by using cages with wire-mesh floors. Anesthesia was induced and maintained with isoflurane. The carotid artery was exposed and cannulated with PE-50 tubing. The cannula was secured using silk sutures and 2% lidocaine was applied to the wound.
Following cannulation, a front midline […] was made, exposing the abdomen and intestinal segments. In this study, the jejunum was isolated and the TSC formulation was administered in the proximal jejunum. Movement of TSC within the intestinal segments was not restricted distal to the site of administration. The intestine was replaced and the abdomen closed with sutures. […] The plasma mixture was then centrifuged and the supernatant was analyzed by HPLC to determine TSC levels.

[5] = tested on: B16 (mouse melanoma) cells; assay: Pulmonary metastasis mouse model, B16 tumor counts in lungs; format: in vivo
From the text: The pulmonary metastasis mouse model is a widely used model for the evaluation of tumor therapy. With B16 (mouse melanoma) cells, essentially all cells “take” upon intravenous cell injection in the tail vein, and the tumors are preferentially formed in the lungs. Thus, the term pulmonary metastasis is widely used even though every resulting pulmonary nodule is technically an independent “primary” tumor rather than a true metastasis.
There is always a fraction of nodules that is amelanotic (“white”) though, and this requires careful counting in order not to underestimate the tumor burden.
For the subject studies, eight-week-old female C57BL/6 mice were obtained from Charles River Laboratories. The mice were housed in groups of 5 or fewer, and received food and water ab libitum.
B16 cells were cultured by the Center for Cell Signaling of the University of Virginia using a standard protocol. The cells were received while they were in an exponential growth phase. The cells were supplied at a concentration of 5×10^5 cells/mL in Hank's buffered salt solution (HBSS).
The cells were injected immediately upon receipt, and this day was designated as Day 0. On Day 0, all of the mice were injected intravenously in the tail vein with 0.1 mL of the cell suspension, meaning that each mouse received 0.5×10^5 cells. The mice were then left alone until Day 4.
On Day 4, the mice were divided into two groups: Group A, consisting of 5 mice, received an intravenous injection of 0.05 mL of saline in the tail vein. Group B, composed of 7 mice, received an intravenous injection of 0.05 mL of a TSC solution in the tail vein, for a TSC dosage of 0.142 mg/kg/day. The same injections were repeated on Days 5-8 and on Days 11-15. On Day 18, the mice were sacrificed using carbon dioxide. The lungs were excised, rinsed and placed in Fekete's Solution and stored at room temperature.
Later, the lungs were assessed visually, in random, blinded order, to obtain a visual count of the numbers of tumors. […] Thus, the tumors were counted visually in two separate groups: small tumors and medium/large tumors. Although the majority of the tumors were black, there were also some white tumors.

neurons [6] = assay: Rat model of Parkinson's disease (6-OHDA), pretreatment, live neuron counts; format: in vivo; conditions: TSC 0.1 mg/kg for 7 days preceding 10 μg 6-OHDA; sacrifice 4 weeks later; FIG. 8
Description: Another model that was used examined the effect of TSC on neuronal viability is a rat model of Parkinson's disease. In this model, a burr hole is drilled through the skull and into the region of the substantia nigra. The Parkinson's-like condition is induced by injecting 6-hydroxydopamine (6-OHDA) into the brain. An amount of 10 μg of 6-OHDA is frequently injected in this model, and was used in the first study.
In the study, TSC was injected at a dosage of 0.1 mg/kg for 7 days preceding the injection of the 6-OHDA (the same dosing regimen as had been done in the crocetin study). Following the injection of the 6-OHDA, no further treatments were given over the next 4 weeks.
At that time the rats were sacrificed and the brains removed and sent to Charles River Laboratories for counts of live neurons. […] This allowed the comparison of cell death (treated side count/untreated side count) of the controls, which had been pretreated with saline, to the animals pretreated with TSC.

[7] = Behaviour of TSC under acidic conditions (stomach); format: physicochemical
From the text: TSC is precipitated under acidic conditions, such as those which exist in the stomach. […] TSC is not stable in acidic conditions and will be converted to the cis isomer which can precipitate. A system has been devised that will protect TSC in the harsh, acidic environment of the stomach and release TSC in a more favorable pH region. A more favorable pH does exist in the small intestines. […] See Examples below. TSC's effectiveness is believed to be dependant on the TSC concentrations levels found in the body. The effectiveness of TSC can be prolonged by administering TSC orally. […] TSC must be protected from the harsh environment of the stomach and be release in a more favorable, higher pH region of the small intestine. For this study, tablets of TSC were made (Table 1) and were enterically coated with either Eudragit L100 or cellulose acetate phthalate (CAP). The integrity of both types of protective coatings were confirmed in a USP dissolution study in which enterically coated tablets were first place in a dissolution cell containing simulated gastric fluid (SGF), then transferred to another cell containing simulated intestinal fluid (SIF). […] This study was performed according to USP protocols.

neurons [8] = conditions: study found in the literature; crocetin pretreatment; cited from earlier work
[9] = C57BL/6 mice lungs Day 18, TSC 0.142 mg/kg/day iv, N 7
[10] = mean±standard deviation, C57BL/6 mice lungs Day 18, TSC 0.142 mg/kg/day iv, N 7

Compound	effect of γ-cyclodextrin on absorption of TSC [1]	more live neurons vs saline (neurons [2]; 5 μg 6-OHDA, daily TSC 0.25 mg/kg for 4 weeks after injection, p<0.05, FIG. 9)	effect on viability of live neurons, non-6-OHDA side of the brain (neurons [2]; daily TSC 0.25 mg/kg for 4 weeks vs saline, FIG. 10)	less death of the neurons around the periphery of the hematoma (neurons [3])	less neuronal death, fluorojade count of dead neurons around the hematomas (neurons [3]; FIG. 7)	linear regression of Cmax versus TSC dosage [4]	Small tumors med. ([5]; C57BL/6 mice lungs Day 18, TSC 0.142 mg/kg/day iv Days 4-8 and 11-15, N 7)	Medium/Large tumors med. [5, 9]	Total tumors med. [5, 9]	statistical difference of tumor counts, TSC group vs saline group ([5]; Day 18, large standard deviations)	Medium/Large tumors mean [5, 10]	Small tumors mean [5, 10]	Total tumors mean [5, 10]	percentage of live neurons (treated side count/untreated side count) vs saline controls (neurons [6])	solubility in the acidic environment of the stomach ([7]; TSC is precipitated)	stability in acidic conditions ([7]; converted to the cis isomer)	effect of pretreatment on neuronal death following 10 μg 6-OHDA (neurons [8])
CC(/C=C/C=C(\C)C(=O)[O-])=C\C=C\C=C(C)\C=C\C=C(/C)C(=O)[O-].[Na+].[Na+] [TSC, trans sodium crocetinate]	greatly enhances	about 20%	no effect	about 20%	approximately 30%	excellent fit	18	19	34	not statistically different	30 ± 24	32 ± 29	62 ± 53	approximately doubled	practically insoluble	not stable	–
CC(/C=C/C=C(\C)C(=O)O)=C\C=C\C=C(C)\C=C\C=C(/C)C(=O)O [crocetin]	–	–	–	–	–	–	–	–	–	–	–	–	–	–	–	–	beneficial effect

From US11491129B2, “Oral formulations of bipolar trans carotenoids” (priority 2010, dated 2022)
